Tests used:
AURKC (human) = AURKC (human) (UniProt Q9UQB9); test: KINOMEscan competition binding; conditions: compound 10.0 µM
NUAK1 (human) = NUAK1 (human) (UniProt O60285); test: KINOMEscan competition binding; conditions: compound 10.0 µM
MKNK2 (human) = MKNK2 (human) (UniProt Q9HBH9); test: KINOMEscan competition binding; conditions: compound 10.0 µM
AURKA (human) = AURKA (human) (UniProt O14965); test: KINOMEscan competition binding; conditions: compound 10.0 µM
TAOK3 (human) = TAOK3 (human) (UniProt Q9H2K8); test: KINOMEscan competition binding; conditions: compound 10.0 µM
PTK2B (human) = PTK2B (human) (UniProt Q14289); test: KINOMEscan competition binding; conditions: compound 10.0 µM
DCLK1 (human) = DCLK1 (human) (UniProt O15075); test: KINOMEscan competition binding; conditions: compound 10.0 µM
MAPK7 (human) = MAPK7 (human) (UniProt Q13164); test: KINOMEscan competition binding; conditions: compound 10.0 µM
PRKD1 (human) = PRKD1 (human) (UniProt Q15139); test: KINOMEscan competition binding; conditions: compound 10.0 µM
PTK2 (human) = PTK2 (human) (UniProt Q05397); test: KINOMEscan competition binding; conditions: compound 10.0 µM
CAMKK2 (human) = CAMKK2 (human) (UniProt Q96RR4); test: KINOMEscan competition binding; conditions: compound 10.0 µM
FER (human) = FER (human) (UniProt P16591); test: KINOMEscan competition binding; conditions: compound 10.0 µM
[1] = test system: ABL1 (human), P00519 [F317L]; test: KINOMEscan competition binding; conditions: compound 10.0 µM
GAK (human) = GAK (human) (UniProt O14976); test: KINOMEscan competition binding; conditions: compound 10.0 µM
PTK6 (human) = PTK6 (human) (UniProt Q13882); test: KINOMEscan competition binding; conditions: compound 10.0 µM
FGFR4 (human) = FGFR4 (human) (UniProt P22455); test: KINOMEscan competition binding; conditions: compound 10.0 µM
CAMK2D (human) = CAMK2D (human) (UniProt Q13557); test: KINOMEscan competition binding; conditions: compound 10.0 µM
ULK2 (human) = ULK2 (human) (UniProt Q8IYT8); test: KINOMEscan competition binding; conditions: compound 10.0 µM
TNK2 (human) = TNK2 (human) (UniProt Q07912); test: KINOMEscan competition binding; conditions: compound 10.0 µM
STK33 (human) = STK33 (human) (UniProt Q9BYT3); test: KINOMEscan competition binding; conditions: compound 10.0 µM
MYLK (human) = MYLK (human) (UniProt Q15746); test: KINOMEscan competition binding; conditions: compound 10.0 µM
FRK (human) = FRK (human) (UniProt P42685); test: KINOMEscan competition binding; conditions: compound 10.0 µM
[2] = test system: ABL1 (human), P00519 [F317I]; test: KINOMEscan competition binding; conditions: compound 10.0 µM
ULK1 (human) = ULK1 (human) (UniProt O75385); test: KINOMEscan competition binding; conditions: compound 10.0 µM
ROS1 (human) = ROS1 (human) (UniProt P08922); test: KINOMEscan competition binding; conditions: compound 10.0 µM
DCLK2 (human) = DCLK2 (human) (UniProt Q8N568); test: KINOMEscan competition binding; conditions: compound 10.0 µM
PLK1 (human) = PLK1 (human) (UniProt P53350); test: KINOMEscan competition binding; conditions: compound 10.0 µM
PIK3CG (human) = PIK3CG (human) (UniProt P48736); test: KINOMEscan competition binding; conditions: compound 10.0 µM
TNK1 (human) = TNK1 (human) (UniProt Q13470); test: KINOMEscan competition binding; conditions: compound 10.0 µM
TTK (human) = TTK (human) (UniProt P33981); test: KINOMEscan competition binding; conditions: compound 10.0 µM
PLK4 (human) = PLK4 (human) (UniProt O00444); test: KINOMEscan competition binding; conditions: compound 10.0 µM
CSF1R (human) = CSF1R (human) (UniProt P07333); test: KINOMEscan competition binding; conditions: compound 10.0 µM
RPS6KA1 KD2 (human) = RPS6KA1 KD2 (human) (UniProt Q15418); test: KINOMEscan competition binding; conditions: compound 10.0 µM
RPS6KA6 KD2 (human) = RPS6KA6 KD2 (human) (UniProt Q9UK32); test: KINOMEscan competition binding; conditions: compound 10.0 µM
TAOK1 (human) = TAOK1 (human) (UniProt Q7L7X3); test: KINOMEscan competition binding; conditions: compound 10.0 µM
RPS6KA2 KD2 (human) = RPS6KA2 KD2 (human) (UniProt Q15349); test: KINOMEscan competition binding; conditions: compound 10.0 µM
ALK (human) = ALK (human) (UniProt Q9UM73); test: KINOMEscan competition binding; conditions: compound 10.0 µM
PIM2 (human) [3] = biological target: PIM2 (human) (UniProt Q9P1W9); test: SelectScreen, TR FRET
PIM1 (human) [4] = biological target: PIM1 (human) (UniProt P11309); test: SelectScreen, TR FRET
GSK3A (human) = GSK3A (human) (UniProt P49840); test: KINOMEscan competition binding; conditions: compound 10.0 µM
CDK7 (human) = CDK7 (human) (UniProt P50613); test: KINOMEscan competition binding; conditions: compound 10.0 µM
MAPK12 (human) = MAPK12 (human) (UniProt P53778); test: KINOMEscan competition binding; conditions: compound 10.0 µM
[5] = biological target: TYK2 JH2 pseudokinase (human) (UniProt P29597); test: KINOMEscan competition binding; conditions: compound 10.0 µM
DAPK2 (human) = DAPK2 (human) (UniProt Q9UIK4); test: KINOMEscan competition binding; conditions: compound 10.0 µM
CSNK2A2 (human) = CSNK2A2 (human) (UniProt P19784); test: KINOMEscan competition binding; conditions: compound 10.0 µM
HIPK1 (human) = HIPK1 (human) (UniProt Q86Z02); test: KINOMEscan competition binding; conditions: compound 10.0 µM
ZAP70 (human) = ZAP70 (human) (UniProt P43403); test: KINOMEscan competition binding; conditions: compound 10.0 µM
CSNK2A1 (human) = CSNK2A1 (human) (UniProt P68400); test: KINOMEscan competition binding; conditions: compound 10.0 µM
TGFBR2 (human) = TGFBR2 (human) (UniProt P37173); test: KINOMEscan competition binding; conditions: compound 10.0 µM
STK17A (human) = STK17A (human) (UniProt Q9UEE5); test: KINOMEscan competition binding; conditions: compound 10.0 µM
PIM2 (human) [6] = biological target: PIM2 (human) (UniProt Q9P1W9); test: KINOMEscan competition binding; conditions: compound 10.0 µM
STK17B (human) = STK17B (human) (UniProt O94768); test: KINOMEscan competition binding; conditions: compound 10.0 µM
PIM1 (human) [7] = biological target: PIM1 (human) (UniProt P11309); test: KINOMEscan competition binding; conditions: compound 10.0 µM
[8] = test system: EIF2AK4 KD2 (human), Q9P2K8 [S808G]; test: KINOMEscan competition binding; conditions: compound 10.0 µM
PIM3 (human) = PIM3 (human) (UniProt Q86V86); test: KINOMEscan competition binding; conditions: compound 10.0 µM
CLK4 (human) = CLK4 (human) (UniProt Q9HAZ1); test: KINOMEscan competition binding; conditions: compound 10.0 µM

PLK4 (human), sequence (O00444 whole entry, looked up): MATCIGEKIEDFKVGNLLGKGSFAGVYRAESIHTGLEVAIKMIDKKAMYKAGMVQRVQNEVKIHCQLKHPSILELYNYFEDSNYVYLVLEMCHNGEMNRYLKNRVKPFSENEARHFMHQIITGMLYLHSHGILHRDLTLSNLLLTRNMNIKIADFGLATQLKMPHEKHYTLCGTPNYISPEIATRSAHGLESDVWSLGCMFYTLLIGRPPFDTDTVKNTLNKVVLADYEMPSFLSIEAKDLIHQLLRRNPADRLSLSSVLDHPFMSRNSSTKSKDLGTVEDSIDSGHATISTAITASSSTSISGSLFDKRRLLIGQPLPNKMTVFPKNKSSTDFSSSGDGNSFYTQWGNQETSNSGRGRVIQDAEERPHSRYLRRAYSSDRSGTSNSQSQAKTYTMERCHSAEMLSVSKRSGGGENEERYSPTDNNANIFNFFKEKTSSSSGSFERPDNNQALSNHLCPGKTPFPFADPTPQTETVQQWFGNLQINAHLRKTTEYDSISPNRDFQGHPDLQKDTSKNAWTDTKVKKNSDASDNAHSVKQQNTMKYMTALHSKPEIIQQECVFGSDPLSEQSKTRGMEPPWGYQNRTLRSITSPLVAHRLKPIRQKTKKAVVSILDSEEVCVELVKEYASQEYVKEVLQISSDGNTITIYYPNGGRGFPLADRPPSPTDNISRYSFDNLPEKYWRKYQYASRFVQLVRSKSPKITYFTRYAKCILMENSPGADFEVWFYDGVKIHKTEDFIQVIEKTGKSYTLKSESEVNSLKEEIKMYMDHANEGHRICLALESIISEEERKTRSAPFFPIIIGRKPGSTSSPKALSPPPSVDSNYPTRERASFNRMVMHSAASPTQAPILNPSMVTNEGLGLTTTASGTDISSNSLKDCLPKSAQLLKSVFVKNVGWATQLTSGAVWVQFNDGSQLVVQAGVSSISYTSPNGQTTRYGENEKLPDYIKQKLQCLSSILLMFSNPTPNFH
PIM2 (human), sequence (Q9P1W9 whole entry, looked up): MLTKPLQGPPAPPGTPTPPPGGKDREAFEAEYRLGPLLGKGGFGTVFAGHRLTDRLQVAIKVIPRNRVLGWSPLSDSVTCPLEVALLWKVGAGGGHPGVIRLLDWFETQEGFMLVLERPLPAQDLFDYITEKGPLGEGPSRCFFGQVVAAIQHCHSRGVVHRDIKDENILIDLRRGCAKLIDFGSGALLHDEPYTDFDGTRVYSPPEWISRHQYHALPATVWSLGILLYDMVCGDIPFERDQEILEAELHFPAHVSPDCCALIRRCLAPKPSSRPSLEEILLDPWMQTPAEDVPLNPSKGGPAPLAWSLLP
PIK3CG (human), sequence (P48736 whole entry, looked up): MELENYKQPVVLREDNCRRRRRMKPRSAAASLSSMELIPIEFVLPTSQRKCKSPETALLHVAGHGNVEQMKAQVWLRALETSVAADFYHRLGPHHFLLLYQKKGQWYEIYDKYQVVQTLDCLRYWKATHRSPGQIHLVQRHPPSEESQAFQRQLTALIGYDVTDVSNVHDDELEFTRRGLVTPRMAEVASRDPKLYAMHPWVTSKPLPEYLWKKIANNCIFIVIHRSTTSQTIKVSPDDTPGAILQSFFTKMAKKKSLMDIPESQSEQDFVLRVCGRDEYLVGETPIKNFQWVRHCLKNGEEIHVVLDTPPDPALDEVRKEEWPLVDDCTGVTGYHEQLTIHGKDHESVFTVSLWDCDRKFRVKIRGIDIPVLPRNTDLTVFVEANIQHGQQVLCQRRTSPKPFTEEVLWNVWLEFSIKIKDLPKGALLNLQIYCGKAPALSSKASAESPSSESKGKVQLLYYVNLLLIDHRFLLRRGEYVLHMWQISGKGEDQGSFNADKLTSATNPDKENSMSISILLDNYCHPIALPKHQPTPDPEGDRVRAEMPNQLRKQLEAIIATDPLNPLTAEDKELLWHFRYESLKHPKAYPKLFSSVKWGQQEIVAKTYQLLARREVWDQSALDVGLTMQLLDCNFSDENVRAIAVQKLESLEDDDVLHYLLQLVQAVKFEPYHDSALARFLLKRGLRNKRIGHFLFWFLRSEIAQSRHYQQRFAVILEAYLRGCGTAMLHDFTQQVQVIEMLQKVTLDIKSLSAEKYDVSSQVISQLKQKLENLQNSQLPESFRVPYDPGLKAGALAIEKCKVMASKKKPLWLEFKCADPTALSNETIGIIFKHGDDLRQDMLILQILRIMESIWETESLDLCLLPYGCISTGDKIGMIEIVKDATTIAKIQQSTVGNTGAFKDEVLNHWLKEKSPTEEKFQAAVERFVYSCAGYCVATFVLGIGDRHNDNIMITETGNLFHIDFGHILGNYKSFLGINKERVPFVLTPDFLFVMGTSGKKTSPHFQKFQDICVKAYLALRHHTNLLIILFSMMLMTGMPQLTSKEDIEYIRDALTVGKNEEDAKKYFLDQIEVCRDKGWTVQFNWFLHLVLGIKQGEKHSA
PIM1 (human), sequence (P11309 whole entry, looked up): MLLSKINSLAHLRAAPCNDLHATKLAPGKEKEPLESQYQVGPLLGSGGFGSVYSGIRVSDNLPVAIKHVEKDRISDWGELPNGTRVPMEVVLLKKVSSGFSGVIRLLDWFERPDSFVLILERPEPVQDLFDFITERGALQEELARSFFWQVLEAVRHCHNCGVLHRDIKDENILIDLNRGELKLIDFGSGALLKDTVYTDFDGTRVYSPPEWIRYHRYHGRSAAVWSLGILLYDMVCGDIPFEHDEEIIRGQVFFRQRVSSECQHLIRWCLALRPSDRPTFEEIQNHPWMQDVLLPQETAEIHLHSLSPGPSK
TAOK3 (human), sequence (Q9H2K8 whole entry, looked up): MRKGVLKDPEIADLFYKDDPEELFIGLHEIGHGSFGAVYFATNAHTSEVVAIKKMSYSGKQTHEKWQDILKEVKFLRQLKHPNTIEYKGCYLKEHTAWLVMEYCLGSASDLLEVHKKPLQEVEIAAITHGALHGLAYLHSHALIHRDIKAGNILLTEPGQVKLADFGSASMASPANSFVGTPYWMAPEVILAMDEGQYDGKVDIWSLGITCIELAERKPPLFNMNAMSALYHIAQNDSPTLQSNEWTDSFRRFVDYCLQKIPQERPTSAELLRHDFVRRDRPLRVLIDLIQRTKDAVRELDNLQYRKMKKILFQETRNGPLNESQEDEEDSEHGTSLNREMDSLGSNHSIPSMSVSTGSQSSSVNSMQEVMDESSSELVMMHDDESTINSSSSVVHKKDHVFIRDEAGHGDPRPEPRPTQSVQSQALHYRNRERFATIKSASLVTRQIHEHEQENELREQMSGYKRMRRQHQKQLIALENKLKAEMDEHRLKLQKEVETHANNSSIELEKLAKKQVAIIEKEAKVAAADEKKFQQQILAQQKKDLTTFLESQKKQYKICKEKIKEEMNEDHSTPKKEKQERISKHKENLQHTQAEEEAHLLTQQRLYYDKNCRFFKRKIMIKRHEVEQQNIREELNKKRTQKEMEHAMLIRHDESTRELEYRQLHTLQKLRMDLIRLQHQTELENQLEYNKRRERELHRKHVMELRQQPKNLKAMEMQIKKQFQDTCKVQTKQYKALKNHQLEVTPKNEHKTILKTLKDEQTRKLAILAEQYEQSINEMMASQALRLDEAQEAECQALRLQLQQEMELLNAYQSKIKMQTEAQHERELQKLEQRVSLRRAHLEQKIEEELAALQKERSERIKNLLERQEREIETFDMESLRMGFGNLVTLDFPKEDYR
TNK1 (human), sequence (Q13470 whole entry, looked up): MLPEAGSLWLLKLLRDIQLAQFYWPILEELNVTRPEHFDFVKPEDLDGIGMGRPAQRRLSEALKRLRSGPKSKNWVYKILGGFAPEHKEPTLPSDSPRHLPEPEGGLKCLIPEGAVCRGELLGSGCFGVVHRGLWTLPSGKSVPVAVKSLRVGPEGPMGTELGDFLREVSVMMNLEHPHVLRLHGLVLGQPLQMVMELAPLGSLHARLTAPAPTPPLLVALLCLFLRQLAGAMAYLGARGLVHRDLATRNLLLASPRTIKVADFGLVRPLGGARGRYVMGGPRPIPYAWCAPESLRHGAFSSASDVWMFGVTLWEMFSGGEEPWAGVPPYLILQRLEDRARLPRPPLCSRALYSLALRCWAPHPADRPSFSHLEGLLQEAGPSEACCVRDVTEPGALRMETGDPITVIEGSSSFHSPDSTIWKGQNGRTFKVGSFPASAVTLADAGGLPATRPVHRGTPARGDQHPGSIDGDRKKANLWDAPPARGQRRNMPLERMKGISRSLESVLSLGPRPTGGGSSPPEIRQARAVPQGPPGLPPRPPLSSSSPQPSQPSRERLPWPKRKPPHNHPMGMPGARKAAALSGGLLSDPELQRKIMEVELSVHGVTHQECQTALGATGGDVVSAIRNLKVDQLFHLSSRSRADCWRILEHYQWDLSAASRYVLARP
RPS6KA6 KD2 (human), sequence (Q9UK32 whole entry, looked up): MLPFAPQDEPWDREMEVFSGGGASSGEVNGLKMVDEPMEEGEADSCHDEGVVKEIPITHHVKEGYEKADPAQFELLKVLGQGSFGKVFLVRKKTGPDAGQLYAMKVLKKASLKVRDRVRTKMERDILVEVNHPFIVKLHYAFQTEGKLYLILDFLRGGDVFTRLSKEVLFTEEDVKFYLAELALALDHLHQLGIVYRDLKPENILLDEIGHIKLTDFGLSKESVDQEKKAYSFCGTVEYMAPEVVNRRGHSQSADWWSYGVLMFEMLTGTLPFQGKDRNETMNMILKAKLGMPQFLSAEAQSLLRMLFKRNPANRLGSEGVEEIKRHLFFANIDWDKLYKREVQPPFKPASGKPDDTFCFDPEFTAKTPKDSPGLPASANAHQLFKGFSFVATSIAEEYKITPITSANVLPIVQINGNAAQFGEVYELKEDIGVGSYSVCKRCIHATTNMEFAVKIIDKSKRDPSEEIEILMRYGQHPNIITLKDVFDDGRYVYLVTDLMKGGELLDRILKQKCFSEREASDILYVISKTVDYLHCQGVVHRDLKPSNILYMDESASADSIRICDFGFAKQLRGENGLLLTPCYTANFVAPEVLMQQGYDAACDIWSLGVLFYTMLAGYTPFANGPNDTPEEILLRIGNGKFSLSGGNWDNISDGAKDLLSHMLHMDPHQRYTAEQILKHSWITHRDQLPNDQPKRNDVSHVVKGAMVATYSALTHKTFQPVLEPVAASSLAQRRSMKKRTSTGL

A kinase still bound, per cent of control (AURKC (human)) of 15%, a kinase still bound, per cent of control (NUAK1 (human)) of 24% and a kinase still bound, per cent of control (MKNK2 (human)) of 0% were found for `COc1cc(N2CCC(O)CC2)ccc1Nc1ncc2c(n1)N(C)c1ccccc1C(=O)N2C` in this work. For the same compound, the kinase still bound, per cent of control (AURKA (human)) was 26%, the kinase still bound, per cent of control (TAOK3 (human)) was 5.4% and the kinase still bound, per cent of control (PTK2B (human)) was 29%. The kinase still bound, per cent of control (DCLK1 (human)) was 0.55%, the kinase still bound, per cent of control (MAPK7 (human)) was 0% and the kinase still bound, per cent of control (PRKD1 (human)) was 26%. The kinase still bound, per cent of control (PTK2 (human)) was 7.9%, the kinase still bound, per cent of control (CAMKK2 (human)) was 15% and the kinase still bound, per cent of control (FER (human)) was 32%. The kinase still bound, per cent of control [1] was 23%, the kinase still bound, per cent of control (GAK (human)) was 8.5% and the kinase still bound, per cent of control (PTK6 (human)) was 21%. For the same compound, the kinase still bound, per cent of control (FGFR4 (human)) was 6%, the kinase still bound, per cent of control (CAMK2D (human)) was 27% and the kinase still bound, per cent of control (ULK2 (human)) was 8.4%. It also gave a kinase still bound, per cent of control (TNK2 (human)) of 1.6%, a kinase still bound, per cent of control (STK33 (human)) of 19% and a kinase still bound, per cent of control (MYLK (human)) of 22%. For the same compound, the kinase still bound, per cent of control (FRK (human)) was 11%, the kinase still bound, per cent of control [2] was 7.4% and the kinase still bound, per cent of control (ULK1 (human)) was 22%. The kinase still bound, per cent of control (ROS1 (human)) was 5.8%, the kinase still bound, per cent of control (DCLK2 (human)) was 0.4% and the kinase still bound, per cent of control (PLK1 (human)) was 5.5%. For the same compound, the kinase still bound, per cent of control (PIK3CG (human)) was 9.3%, the kinase still bound, per cent of control (TNK1 (human)) was 0.45% and the kinase still bound, per cent of control (TTK (human)) was 13%. It also gave a kinase still bound, per cent of control (PLK4 (human)) of 5.9%, a kinase still bound, per cent of control (CSF1R (human)) of 3.2% and a kinase still bound, per cent of control (RPS6KA1 KD2 (human)) of 22%. For the same compound, the kinase still bound, per cent of control (RPS6KA6 KD2 (human)) was 14%, the kinase still bound, per cent of control (TAOK1 (human)) was 6.8% and the kinase still bound, per cent of control (RPS6KA2 KD2 (human)) was 27%. It also gave a kinase still bound, per cent of control (ALK (human)) of 24%.
An IC50 (PIM2 (human) [3]) of 762 nM, an IC50 (PIM1 (human) [4]) of 861 nM and a kinase still bound, per cent of control (GSK3A (human)) of 28% were found for `COc1cc(C(N)=O)ccc1-c1ccc(/C=C2\SC(=N)NC2=O)o1` in this work. The kinase still bound, per cent of control (CDK7 (human)) was 29%, the kinase still bound, per cent of control (MAPK12 (human)) was 27% and the kinase still bound, per cent of control [5] was 5.1%. The kinase still bound, per cent of control (DAPK2 (human)) was 34%, the kinase still bound, per cent of control (CSNK2A2 (human)) was 31% and the kinase still bound, per cent of control (HIPK1 (human)) was 5.2%. The kinase still bound, per cent of control (ZAP70 (human)) was 29%, the kinase still bound, per cent of control (CSNK2A1 (human)) was 18% and the kinase still bound, per cent of control (TGFBR2 (human)) was 14%. The kinase still bound, per cent of control (PIK3CG (human)) was 28%, the kinase still bound, per cent of control (PLK4 (human)) was 22% and the kinase still bound, per cent of control (STK17A (human)) was 0.4%. It also gave a kinase still bound, per cent of control (PIM2 (human) [6]) of 0.95%, a kinase still bound, per cent of control (STK17B (human)) of 1.6% and a kinase still bound, per cent of control (PIM1 (human) [7]) of 3.4%. It also gave a kinase still bound, per cent of control [8] of 29%, a kinase still bound, per cent of control (PIM3 (human)) of 5.6% and a kinase still bound, per cent of control (CLK4 (human)) of 17%.
